Assay: xn = mol fraction of the nth substance listed
Settings: Liquid, Vibrating tube method

CCCCCCCCCCC [undecane] + CCCCCCC
Settings | mass density [kg/m3]
333.04 K, 8001 kPa, x2 = 0.5063 | 694.1
333.04 K, 9000 kPa, x2 = 0.5063 | 695
333.04 K, 10000 kPa, x2 = 0.5063 | 696
333.04 K, 11000 kPa, x2 = 0.5063 | 696.9
333.04 K, 12000 kPa, x2 = 0.5063 | 697.8
333.04 K, 13000 kPa, x2 = 0.5063 | 698.7
333.04 K, 14000 kPa, x2 = 0.5063 | 699.6
333.04 K, 15000 kPa, x2 = 0.5063 | 700.5
333.04 K, 16000 kPa, x2 = 0.5063 | 701.4
333.04 K, 17001 kPa, x2 = 0.5063 | 702.2
333.04 K, 18000 kPa, x2 = 0.5063 | 703.1
333.04 K, 19000 kPa, x2 = 0.5063 | 703.9
333.04 K, 20000 kPa, x2 = 0.5063 | 704.7
333.04 K, 21001 kPa, x2 = 0.5063 | 705.6
333.04 K, 22050 kPa, x2 = 0.5063 | 706.3
333.04 K, 23000 kPa, x2 = 0.5063 | 707.1
333.04 K, 24000 kPa, x2 = 0.5063 | 707.9
333.04 K, 25000 kPa, x2 = 0.5063 | 708.7
333.05 K, 1000 kPa, x2 = 0.7482 | 670.8
333.05 K, 2000 kPa, x2 = 0.7482 | 672
333.05 K, 3000 kPa, x2 = 0.7482 | 673.1
333.05 K, 4000 kPa, x2 = 0.7482 | 674.3
333.05 K, 5000 kPa, x2 = 0.7482 | 675.4
333.05 K, 6000 kPa, x2 = 0.7482 | 676.4
333.05 K, 7000 kPa, x2 = 0.7482 | 677.5
333.05 K, 8000 kPa, x2 = 0.7482 | 678.6
333.05 K, 9000 kPa, x2 = 0.7482 | 679.6
333.05 K, 10000 kPa, x2 = 0.7482 | 680.6
333.05 K, 11000 kPa, x2 = 0.7482 | 681.6
333.05 K, 12000 kPa, x2 = 0.7482 | 682.6
333.05 K, 13000 kPa, x2 = 0.7482 | 683.6
333.05 K, 14000 kPa, x2 = 0.7482 | 684.5
333.05 K, 15000 kPa, x2 = 0.7482 | 685.4
333.05 K, 16000 kPa, x2 = 0.7482 | 686.4
333.05 K, 17000 kPa, x2 = 0.7482 | 687.3
333.05 K, 18000 kPa, x2 = 0.7482 | 688.2
333.05 K, 19000 kPa, x2 = 0.7482 | 689
333.05 K, 20000 kPa, x2 = 0.7482 | 689.9
333.05 K, 21000 kPa, x2 = 0.7482 | 690.8
333.05 K, 22000 kPa, x2 = 0.7482 | 691.6
333.05 K, 23000 kPa, x2 = 0.7482 | 692.4
333.05 K, 24000 kPa, x2 = 0.7482 | 693.2
333.05 K, 25000 kPa, x2 = 0.7482 | 694
333.09 K, 1001 kPa, x2 = 0.05 | 709.1
333.09 K, 1004 kPa, x2 = 0.2346 | 701.3
333.09 K, 2001 kPa, x2 = 0.05 | 710.1
333.09 K, 2004 kPa, x2 = 0.2346 | 702.3
333.09 K, 3000 kPa, x2 = 0.05 | 711
333.09 K, 3003 kPa, x2 = 0.2346 | 703.3
333.09 K, 4000 kPa, x2 = 0.05 | 712
333.09 K, 4003 kPa, x2 = 0.2346 | 704.2
333.09 K, 5000 kPa, x2 = 0.05 | 712.9
333.09 K, 5003 kPa, x2 = 0.2346 | 705.2
333.09 K, 6000 kPa, x2 = 0.05 | 713.8
333.09 K, 6003 kPa, x2 = 0.2346 | 706.1
333.09 K, 7000 kPa, x2 = 0.05 | 714.7
333.09 K, 7003 kPa, x2 = 0.2346 | 707
333.09 K, 8001 kPa, x2 = 0.05 | 715.6
333.09 K, 8002 kPa, x2 = 0.2346 | 708
333.09 K, 9000 kPa, x2 = 0.05 | 716.5
333.09 K, 9002 kPa, x2 = 0.2346 | 708.9
333.09 K, 10000 kPa, x2 = 0.05 | 717.3
333.09 K, 10002 kPa, x2 = 0.2346 | 709.7
333.09 K, 11000 kPa, x2 = 0.05 | 718.2
333.09 K, 11002 kPa, x2 = 0.2346 | 710.6
333.09 K, 12000 kPa, x2 = 0.05 | 719
333.09 K, 12002 kPa, x2 = 0.2346 | 711.5
333.09 K, 13000 kPa, x2 = 0.05 | 719.9
333.09 K, 13001 kPa, x2 = 0.2346 | 712.3
333.09 K, 14000 kPa, x2 = 0.05 | 720.7
333.09 K, 14001 kPa, x2 = 0.2346 | 713.2
333.09 K, 15000 kPa, x2 = 0.05 | 721.5
333.09 K, 15002 kPa, x2 = 0.2346 | 714
333.09 K, 16000 kPa, x2 = 0.05 | 722.3
333.09 K, 16002 kPa, x2 = 0.2346 | 714.8
333.09 K, 17000 kPa, x2 = 0.05 | 723.1
333.09 K, 17002 kPa, x2 = 0.2346 | 715.6
333.09 K, 18000 kPa, x2 = 0.05 | 723.8
333.09 K, 18002 kPa, x2 = 0.2346 | 716.4
333.09 K, 19000 kPa, x2 = 0.05 | 724.6
333.09 K, 19001 kPa, x2 = 0.2346 | 717.2
333.09 K, 20000 kPa, x2 = 0.05 | 725.4
333.09 K, 20002 kPa, x2 = 0.2346 | 718
333.09 K, 21000 kPa, x2 = 0.05 | 726.1
333.09 K, 21035 kPa, x2 = 0.2346 | 718.8
333.09 K, 22001 kPa, x2 = 0.05 | 726.8
333.09 K, 22036 kPa, x2 = 0.2346 | 719.5
333.09 K, 23000 kPa, x2 = 0.05 | 727.6
333.09 K, 23038 kPa, x2 = 0.2346 | 720.3
333.09 K, 24000 kPa, x2 = 0.05 | 728.3
333.09 K, 24039 kPa, x2 = 0.2346 | 721
333.09 K, 25000 kPa, x2 = 0.05 | 729
333.09 K, 25041 kPa, x2 = 0.2346 | 721.8

From the NIST ThermoML archive (doi:10.1021/je400055v)
